Reference: PMC10414762, “Gene amplifications cause high-level resistance against albicidin in gram-negative bacteria” (PLOS Biology, 2023)

Molecular target: T1, STM3175 (YgiV) (Salmonella enterica, UniProt Q8ZM00)
T1 construct: full-length STM3175 (288 aa)
Assay: tryptophan fluorescence quenching titration
Format: binding
Text: tryptophan fluorescence quenching titration on STM3175 (YgiV) | Fluorescence quenching of STM3175 plotted as a function of increasing azahistidine albicidin concentration.

T1 sequence (Q8ZM00 whole entry): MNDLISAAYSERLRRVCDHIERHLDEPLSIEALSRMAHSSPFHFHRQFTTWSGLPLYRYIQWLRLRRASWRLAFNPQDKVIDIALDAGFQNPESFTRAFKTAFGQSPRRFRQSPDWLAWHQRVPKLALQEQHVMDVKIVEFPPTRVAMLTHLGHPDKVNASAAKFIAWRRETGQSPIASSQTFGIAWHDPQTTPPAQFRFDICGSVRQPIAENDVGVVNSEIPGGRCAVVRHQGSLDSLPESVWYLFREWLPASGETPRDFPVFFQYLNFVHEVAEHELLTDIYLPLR

COc1c(NC(=O)c2ccc(NC(=O)c3ccc(NC(=O)[C@H](Cc4c[nH]nn4)NC(=O)c4ccc(NC(=O)/C(C)=C/c5ccc(O)cc5)cc4)cc3)c(OC)c2O)ccc(C(=O)O)c1O [azahistidine albicidin]
Kd: 170 ± 10 nM
